Measurements taken from paper PMC9572083, “Hybrids of 1,4-Quinone with Quinoline Derivatives: Synthesis, Biological Activity, and Molecular Docking with DT-Diaphorase (NQO1)” (Molecules, 2022).

Assays:
[1] = target: T1, NQO1 (DT-diaphorase, EC 1.6.5.5, human recombinant) (Homo sapiens, UniProt P15559); assay: NQO1 substrate NADPH recycling enzymatic assay; format: biochemical; details: for NQO1 activity (enzymatic conversion rate): compound 10 µmol/L, pH 7.4, 25 °C, absorbance at 340 nm
T1 construct: purchased Sigma-Aldrich
T1 sequence (P15559 whole entry): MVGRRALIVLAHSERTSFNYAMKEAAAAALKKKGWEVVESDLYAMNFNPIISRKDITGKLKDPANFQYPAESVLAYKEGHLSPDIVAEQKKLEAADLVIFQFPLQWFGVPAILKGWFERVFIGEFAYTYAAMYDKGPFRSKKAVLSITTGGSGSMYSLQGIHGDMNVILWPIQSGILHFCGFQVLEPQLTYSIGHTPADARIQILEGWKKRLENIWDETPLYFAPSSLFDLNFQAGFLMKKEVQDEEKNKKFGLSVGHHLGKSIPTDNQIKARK
Description: The interaction between 1,4-quinone moiety of hybrid and NQO1 protein leads to reduction in quinone to hydroquinone and production of reactive oxide form (ROS). According to a literature method, the ability of hybrids 11–14 and streptonigrin (ST) to be a substrate for NQO1 was examined by measuring the oxidation of NADPH to NADP^+ [29, 32].
Compounds 11–14 (10 µmol/L) were tested as NQO1 substrates using the NADPH recycling assay according to the literature method. The recombinant NQO1 (DT-diaphorase, EC 1.6.5.5, human recombinant, Sigma-Aldrich) was used, and the oxidation of NADPH to NADP^+ was measured at the absorption wavelength of 340 nm on the BioTek 800TS microplate reader (BioKom, Janki, Poland). Compounds were dissolved in dimethyl sulfoxide (2 µL) and added to the 96-well plate. The NQO1 protein (1.4 µg/mL) in 50 mmol/L potassium phosphate buffer (pH = 7.4) was added to each well (198 µL) (Nunc Thermo Fisher Scientific, Waltham, MA, USA). Once the 96-well plate was filled with the assay solutions, except the NADPH solution, it was placed into the instrument and left to sit for 5 min before starting the measurements. The enzymatic reaction was initiated by automatically dispensing the NADPH solution into the wells, and data were recorded at 10 s intervals for 5 min at 25 °C. The linear part of the absorbance vs. time graphs (the first 20 s to 1 min) was fitted, and the slopes were calculated. NADPH oxidation rates were compared with reactions lacking the tested compound. Initial velocities were calculated, and data were expressed as µmol NADPH/µmol NQO1/min. All reactions were carried out at least in triplicate.

Colo-829 cells = assay: Cytotoxic activity, WST-1 assay, melanoma Colo-829; format: cell-based, human; details: for SI (IC50 HFF-1/IC50 cancer line) Colo-829: HFF-1 vs Colo-829; for IC50: Homo sapiens, melanoma Colo-829, 72 h, WST-1
Source text: (§1) Anticancer activity of compounds 11–14 was designated against following human cancer cell lines: melanoma (Colo-829), ovarian cancer (SK-OV-3), breast cancer (MDA-MB-231, T47D and MCF-7), lung cancer (A549) and normal fibroblasts (HFF-1). As a reference substance, the doxorubicin was used. The results are presented in Table 1 as IC50, where IC50 means the concentration of tested compounds (µM) causing the growth inhibition of 50% for given tumor cells. The negative value (Neg.) means that the IC50 is higher than 30 µM. Selectivity index (SI) as the ratio of the IC50 for normal fibroblast (HFF-1) to IC50 of the corresponding cell line, is presented in Table S2.
(§2) Compounds 7–14 and doxorubicin were tested for cytotoxic activity in vitro against panel of human cancer cell lines: melanoma (Colo-829, ATCC, Rockville, MD, USA), ovarian cancer (SK-OV-3, ATCC, Rockville, MD, USA), breast cancer (T47D, MCF-7, and MDA-MB-231, ATCC, Rockville, MD, USA) and lung cancer (A549, ATCC, Rockville, MD, USA). The cultured cells were kept at 37 °C and 5% CO2. The cells were seeded (5 × 10^4 cells/well/[…] DMEM supplemented with 10% FCS and streptomycin/penicillin) using 96-well plates (Nunc Thermo Fisher Scientific, Waltham, MA, USA). The tested compounds 7–14 with the concentration of 1–100 µg/mL DMSO were inducted with the cancer cells for 72 h. The WST-1-formazan (proliferation reagent WST-1 assay, Roche Diagnostics, Mannheim, Germany) was detected using a microplate reader at 450 nm. Results were expressed as a mean value of at least three independent experiments performed in triplicate.

SK-OV-3 cells = assay: Cytotoxic activity, WST-1 assay, ovarian cancer SK-OV-3; format: cell-based, human; details: for SI (IC50 HFF-1/IC50 cancer line) SK-OV-3: HFF-1 vs SK-OV-3; for IC50: Homo sapiens, ovarian cancer SK-OV-3, 72 h, WST-1
Source text: as §1, §2

MDA-MB-231 cells = assay: Cytotoxic activity, WST-1 assay, breast cancer MDA-MB-231; format: cell-based, human; details: for SI (IC50 HFF-1/IC50 cancer line) MDA-MB-231: HFF-1 vs MDA-MB-231; for IC50: Homo sapiens, breast cancer MDA-MB-231, 72 h, WST-1
Source text: as §1, §2

T47D cells = assay: Cytotoxic activity, WST-1 assay, breast cancer T47D; format: cell-based, human; details: for SI (IC50 HFF-1/IC50 cancer line) T47D: HFF-1 vs T47D; for IC50: Homo sapiens, breast cancer T47D, 72 h, WST-1
Source text: as §1, §2

MCF-7 cells = assay: Cytotoxic activity, WST-1 assay, breast cancer MCF-7; format: cell-based, human; details: for SI (IC50 HFF-1/IC50 cancer line) MCF-7: HFF-1 vs MCF-7; for IC50: Homo sapiens, MCF7, breast cancer MCF-7, 72 h, WST-1
Source text: as §1, §2

A549 cells = assay: Cytotoxic activity, WST-1 assay, lung cancer A549; format: cell-based, human; details: for SI (IC50 HFF-1/IC50 cancer line) A549: HFF-1 vs A549; for IC50: Homo sapiens, lung cancer A549, 72 h, WST-1
Source text: as §1, §2

HFF-1 cells = assay: Cytotoxic activity, WST-1 assay, normal fibroblasts HFF-1; format: cell-based; details: Homo sapiens, normal fibroblasts HFF-1, 72 h
Source text: as §1, §2

SMILES	NQO1 activity (enzymatic conversion rate) [1] [µmol NADPH/µmol NQO1/min]	SI (IC50 HFF-1/IC50 cancer line) Colo-829 (Colo-829 cells)	IC50 (Colo-829 cells) [nM]	SI (IC50 HFF-1/IC50 cancer line) SK-OV-3 (SK-OV-3 cells)	IC50 (SK-OV-3 cells) [nM]	SI (IC50 HFF-1/IC50 cancer line) MDA-MB-231 (MDA-MB-231 cells)	IC50 (MDA-MB-231 cells) [nM]	SI (IC50 HFF-1/IC50 cancer line) T47D (T47D cells)	IC50 (T47D cells) [nM]	SI (IC50 HFF-1/IC50 cancer line) MCF-7 (MCF-7 cells)	IC50 (MCF-7 cells) [nM]	SI (IC50 HFF-1/IC50 cancer line) A549 (A549 cells)	IC50 (A549 cells) [nM]	IC50 (HFF-1 cells) [nM]	melting point [°C]	Enzymatic conversion rate relative to streptonigrin ([1]; fold higher than streptonigrin)
O=C1C(Cl)=C(Oc2cccc3cccnc23)C(=O)c2cnccc21 [Compound 13a, 6-chloro-7-(quinolin-8-yloxy)isoquinoline-5,8-dione]	1210 ± 23	162.88	170 ± 20	60.20	460 ± 20	27.15	1020 ± 150	307.67	90 ± 40	23.87	1160 ± 150	923.00	30 ± 10	27700 ± 700	86 to 88	
O=Cc1ccc2cccc(OC3=C(Cl)C(=O)c4ccncc4C3=O)c2n1 [Compound 13c, 8-[(6-chloro-5,8-dioxo-5,8-dihydroisoquinolin-7-yl)oxy]quinoline-2-carbaldehyde]	318 ± 19	38.97	340 ± 280	41.41	320 ± 10	17.67	750 ± 90	25.48	520 ± 80	14.89	890 ± 30	10.04	1320 ± 320	13200 ± 850	166 to 168	
O=C1C(Cl)=C(Oc2cccc3cccnc23)C(=O)c2ccccc21 [Compound 14a, 2-chloro-3[(quinolin-8-yl)oxy]naphthalene-1,4-dione]	1282 ± 29	0.84	15300 ± 2560	7.54	1700 ± 290	0.84	15200 ± 850		> 30000	0.91	14100 ± 980	19.71	650 ± 70	12800 ± 850	115 to 117	
O=C1C(Cl)=C(Oc2cccc3ccc(Cl)nc23)C(=O)c2ncccc21 [Compound 11d, 6-chloro-7-[(2-chloroquinolin-8-yl)oxy]quinoline-5,8-dione]	800 ± 64	9.48	1450 ± 240	8.81	1560 ± 110	6.77	2030 ± 50	6.54	2100 ± 110	6.51	2110 ± 90	8.04	1710 ± 30	13700 ± 1270	123 to 125	
O=C1C(Cl)=C(Oc2cccc3cccnc23)C(=O)c2ncccc21 [Compound 11a, 6-chloro-7-(quinolin-8-yloxy)quinoline-5,8-dione]	1399 ± 26	0.55	18500 ± 1310	6.59	1550 ± 200	0.89	11500 ± 190	0.55	18700 ± 710	0.53	19400 ± 370	6.08	1680 ± 50	10200 ± 160	112 to 114	about 2 times
O=Cc1ccc2cccc(OC3=C(Cl)C(=O)c4cccnc4C3=O)c2n1 [Compound 11c, 8-[(6-chloro-5,8-dioxo-5,8-dihydroquinolin-7-yl)oxy]quinoline-2-carbaldehyde]	1100 ± 35	0.90	11600 ± 1360	5.91	1780 ± 310	0.73	14400 ± 2010	0.47	22200 ± 660	0.57	18300 ± 1230	7.26	1450 ± 130	10500 ± 870	168 to 170	
Cc1ccc2c(n1)C(=O)C(Oc1cccc3cccnc13)=C(Cl)C2=O [Compound 12a, 6-chloro-2-methyl-7-(quinolin-8-yloxy)quinoline-5,8-dione]	1505 ± 54	11.41	1520 ± 350	346.80	50 ± 20	8.80	1970 ± 150	10.91	1590 ± 150	8.30	2090 ± 20	20.40	850 ± 40	17300 ± 890	115 to 117	
